pKi: −log10 of the molar value.
How the values were obtained:
[1] = target: Vasopressin V2 receptor (Rattus norvegicus, UniProt Q00788)
[2] = target: T1, Oxytocin receptor (Rattus norvegicus, UniProt P70536)
T1 sequence (P70536 whole entry): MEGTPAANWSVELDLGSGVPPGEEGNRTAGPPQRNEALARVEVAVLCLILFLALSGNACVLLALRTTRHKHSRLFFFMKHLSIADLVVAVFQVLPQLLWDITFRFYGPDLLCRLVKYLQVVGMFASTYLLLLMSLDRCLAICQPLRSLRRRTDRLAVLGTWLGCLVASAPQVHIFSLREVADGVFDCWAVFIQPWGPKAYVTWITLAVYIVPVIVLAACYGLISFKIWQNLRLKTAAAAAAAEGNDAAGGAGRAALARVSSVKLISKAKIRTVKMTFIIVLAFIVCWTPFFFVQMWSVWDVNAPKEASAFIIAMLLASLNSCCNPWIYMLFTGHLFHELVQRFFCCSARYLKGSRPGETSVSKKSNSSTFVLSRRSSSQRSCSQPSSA

[3] = target: Vasopressin V1a receptor (Rattus norvegicus, UniProt P30560)
Chain of Vasopressin V1a receptor (P30560 whole entry): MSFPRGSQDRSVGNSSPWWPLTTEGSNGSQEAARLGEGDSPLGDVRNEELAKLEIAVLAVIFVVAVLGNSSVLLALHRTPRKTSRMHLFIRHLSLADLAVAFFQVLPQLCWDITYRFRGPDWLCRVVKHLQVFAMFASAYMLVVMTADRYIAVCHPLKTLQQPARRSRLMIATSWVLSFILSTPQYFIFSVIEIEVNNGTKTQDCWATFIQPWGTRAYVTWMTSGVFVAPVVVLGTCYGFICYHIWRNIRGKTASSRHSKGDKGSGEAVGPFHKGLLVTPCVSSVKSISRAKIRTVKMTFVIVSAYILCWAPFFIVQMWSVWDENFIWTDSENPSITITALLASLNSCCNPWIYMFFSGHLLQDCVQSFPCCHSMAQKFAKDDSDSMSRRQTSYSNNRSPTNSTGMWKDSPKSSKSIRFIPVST

[4] = target: T2, Vasopressin V1b receptor (Bos taurus, UniProt F1ME85)
T2 sequence (F1ME85 whole entry): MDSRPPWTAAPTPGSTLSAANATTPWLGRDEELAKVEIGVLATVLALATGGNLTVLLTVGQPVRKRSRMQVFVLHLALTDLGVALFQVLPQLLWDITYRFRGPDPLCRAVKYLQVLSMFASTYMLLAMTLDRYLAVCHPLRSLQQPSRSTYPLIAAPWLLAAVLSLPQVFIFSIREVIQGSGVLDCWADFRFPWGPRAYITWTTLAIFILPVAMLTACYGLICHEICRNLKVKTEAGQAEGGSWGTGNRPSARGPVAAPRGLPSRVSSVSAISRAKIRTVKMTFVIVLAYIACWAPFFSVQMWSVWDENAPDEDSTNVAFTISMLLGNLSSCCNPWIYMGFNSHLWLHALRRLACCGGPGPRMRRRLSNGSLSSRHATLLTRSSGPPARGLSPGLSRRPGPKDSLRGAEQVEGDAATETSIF

Chain of Vasopressin V2 receptor (Q00788 whole entry): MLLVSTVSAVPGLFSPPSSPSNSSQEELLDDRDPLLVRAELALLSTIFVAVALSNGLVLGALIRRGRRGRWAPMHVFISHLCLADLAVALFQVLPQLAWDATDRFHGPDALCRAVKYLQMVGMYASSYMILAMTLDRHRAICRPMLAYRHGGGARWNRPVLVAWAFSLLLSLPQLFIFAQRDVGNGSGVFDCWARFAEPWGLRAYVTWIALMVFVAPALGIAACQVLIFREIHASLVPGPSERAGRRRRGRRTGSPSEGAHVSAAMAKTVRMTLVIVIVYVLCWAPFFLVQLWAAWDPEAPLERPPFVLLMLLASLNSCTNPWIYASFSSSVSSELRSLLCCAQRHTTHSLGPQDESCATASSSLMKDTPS

pKi [1]: 5.54 | pKi [2]: 6.57 | pKi [3]: 5.98 | pKi [4]: 8.57
SMILES: COc1ccc(S(=O)(=O)N2C(=O)[C@@](c3ccccc3OC)(N3C[C@H](O)C[C@H]3C(=O)N(C)C)c3cc(Cl)ccc32)c(OC)c1 [SSR149415]

— BindingDB's records for doi:10.1124/jpet.300.3.1122 (Sanofi-Synthelabo Recherche, 2002)
